# According to article PMC5964349, “A Single-Domain Response Regulator Functions as an Integrating Hub To Coordinate General Stress Response and Development in Alphaproteobacteria” (mBio, 2018):
# Experiments:
# Experiment in all cases: autophosphorylation, SDS-PAGE autoradiography
# Format in all cases: biochemical
# CC2874 = target: T1, CC2874 (Caulobacter vibrioides, UniProt Q9A4G0); settings: 500 µM ATP with [γ-32P]ATP; 5 mM MgCl2, pH 8.0, room temperature, 15 min; labelled compound
# T1 construct: gene CC_2874; recombinant from E. coli BL21, MBP-tagged (partly cleaved), Ni-NTA purified
# T1 sequence (Q9A4G0 1-794): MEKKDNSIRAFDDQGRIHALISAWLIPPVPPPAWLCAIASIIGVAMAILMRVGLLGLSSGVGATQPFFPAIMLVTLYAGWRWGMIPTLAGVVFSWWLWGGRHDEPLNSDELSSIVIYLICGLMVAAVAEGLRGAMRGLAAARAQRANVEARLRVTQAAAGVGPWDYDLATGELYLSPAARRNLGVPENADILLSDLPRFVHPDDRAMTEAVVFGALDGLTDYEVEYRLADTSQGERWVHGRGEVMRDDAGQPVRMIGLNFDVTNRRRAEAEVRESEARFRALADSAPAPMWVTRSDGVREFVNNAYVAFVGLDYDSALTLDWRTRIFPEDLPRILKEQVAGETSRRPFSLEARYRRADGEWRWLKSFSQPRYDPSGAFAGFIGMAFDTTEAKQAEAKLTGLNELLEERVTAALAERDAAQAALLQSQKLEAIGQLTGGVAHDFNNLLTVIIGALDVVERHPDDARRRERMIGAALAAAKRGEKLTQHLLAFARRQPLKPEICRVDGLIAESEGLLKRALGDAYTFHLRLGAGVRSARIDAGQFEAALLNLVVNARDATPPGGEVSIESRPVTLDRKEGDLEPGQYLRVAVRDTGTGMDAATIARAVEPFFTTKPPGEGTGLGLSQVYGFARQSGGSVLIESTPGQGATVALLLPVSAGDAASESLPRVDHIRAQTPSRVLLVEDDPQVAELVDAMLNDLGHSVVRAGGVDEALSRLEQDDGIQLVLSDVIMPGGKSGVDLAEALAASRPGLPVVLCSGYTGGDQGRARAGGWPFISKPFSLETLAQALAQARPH
# CC3058 = target: T2, CC3058 (Caulobacter vibrioides, UniProt Q9A3Z2); settings: 500 µM ATP with [γ-32P]ATP; 5 mM MgCl2, pH 8.0, room temperature, 30 min; labelled compound
# T2 construct: gene CC_3058; recombinant from E. coli BL21, Ni-NTA purified
# T2 sequence (Q9A3Z2 1-465): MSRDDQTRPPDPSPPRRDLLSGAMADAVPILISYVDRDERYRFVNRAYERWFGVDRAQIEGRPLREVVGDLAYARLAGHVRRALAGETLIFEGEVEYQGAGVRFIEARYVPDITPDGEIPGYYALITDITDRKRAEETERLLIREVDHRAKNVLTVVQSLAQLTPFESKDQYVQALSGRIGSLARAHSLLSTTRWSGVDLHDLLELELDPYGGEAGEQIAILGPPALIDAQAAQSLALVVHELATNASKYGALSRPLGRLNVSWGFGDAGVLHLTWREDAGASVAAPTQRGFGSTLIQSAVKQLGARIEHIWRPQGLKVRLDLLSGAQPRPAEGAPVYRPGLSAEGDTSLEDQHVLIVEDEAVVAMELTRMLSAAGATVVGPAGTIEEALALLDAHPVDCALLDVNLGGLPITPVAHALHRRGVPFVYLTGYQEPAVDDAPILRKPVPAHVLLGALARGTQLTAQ
# CC0836 = target: T3, CC0836 (Caulobacter vibrioides, UniProt Q9A9X5); settings: 500 µM ATP with [γ-32P]ATP; 5 mM MgCl2, pH 8.0, room temperature, 30 min; labelled compound
# T3 construct: gene CC_0836; recombinant from E. coli BL21, Ni-NTA purified
# T3 sequence (Q9A9X5 1-754): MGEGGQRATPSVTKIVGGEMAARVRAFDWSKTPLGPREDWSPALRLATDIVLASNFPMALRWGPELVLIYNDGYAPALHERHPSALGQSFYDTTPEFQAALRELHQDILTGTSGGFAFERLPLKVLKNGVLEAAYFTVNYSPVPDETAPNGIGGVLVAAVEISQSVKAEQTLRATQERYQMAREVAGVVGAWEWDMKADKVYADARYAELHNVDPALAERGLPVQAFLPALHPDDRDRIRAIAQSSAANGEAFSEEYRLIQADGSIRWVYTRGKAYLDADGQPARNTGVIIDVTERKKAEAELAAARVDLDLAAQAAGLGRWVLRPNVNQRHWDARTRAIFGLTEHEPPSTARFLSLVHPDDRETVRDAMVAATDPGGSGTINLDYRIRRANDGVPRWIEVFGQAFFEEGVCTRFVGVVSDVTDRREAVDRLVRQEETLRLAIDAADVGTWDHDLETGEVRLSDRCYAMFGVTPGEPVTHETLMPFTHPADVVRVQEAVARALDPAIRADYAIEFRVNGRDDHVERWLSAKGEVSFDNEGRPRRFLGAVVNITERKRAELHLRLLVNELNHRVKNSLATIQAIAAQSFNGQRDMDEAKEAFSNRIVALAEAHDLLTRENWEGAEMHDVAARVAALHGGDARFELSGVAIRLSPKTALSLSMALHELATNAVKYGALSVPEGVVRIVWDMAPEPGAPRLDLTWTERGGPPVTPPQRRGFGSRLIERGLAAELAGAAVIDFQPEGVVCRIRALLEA
# CC3170 = target: T4, CC3170 (Caulobacter vibrioides, UniProt Q9A3N2); settings: 500 µM ATP with [γ-32P]ATP; 5 mM MgCl2, pH 8.0, room temperature, 30 min; labelled compound
# T4 construct: gene CC_3170; recombinant from E. coli BL21, Ni-NTA purified
# T4 sequence (Q9A3N2 1-473): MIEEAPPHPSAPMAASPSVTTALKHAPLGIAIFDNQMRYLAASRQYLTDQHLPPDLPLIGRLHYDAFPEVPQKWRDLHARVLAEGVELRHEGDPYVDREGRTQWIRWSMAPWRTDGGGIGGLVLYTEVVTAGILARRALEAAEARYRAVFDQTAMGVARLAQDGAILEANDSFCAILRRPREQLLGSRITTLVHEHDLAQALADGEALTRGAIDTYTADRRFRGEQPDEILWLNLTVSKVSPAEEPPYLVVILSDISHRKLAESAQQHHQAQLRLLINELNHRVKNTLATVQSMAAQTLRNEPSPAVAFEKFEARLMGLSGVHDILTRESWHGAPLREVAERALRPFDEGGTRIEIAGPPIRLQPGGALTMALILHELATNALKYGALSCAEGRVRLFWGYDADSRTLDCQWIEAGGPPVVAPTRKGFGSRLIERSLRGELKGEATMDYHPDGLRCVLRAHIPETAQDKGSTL
# [1] = target: T5, CC2874 lacking its C-terminal receiver domain (ΔREC) (Caulobacter vibrioides, UniProt Q9A4G0); settings: 500 µM ATP with [γ-32P]ATP; 5 mM MgCl2, pH 8.0, room temperature, 15 min; labelled compound
# T5 construct: gene CC_2874; recombinant from E. coli BL21, Ni-NTA purified
# CC2554 = target: T6, CC2554 (Caulobacter vibrioides, UniProt Q9A599); settings: 500 µM ATP with [γ-32P]ATP; 5 mM MgCl2, pH 8.0, room temperature, 15 min; labelled compound
# T6 construct: gene CC_2554; recombinant from E. coli BL21, Ni-NTA purified
# T6 sequence (Q9A599 1-338): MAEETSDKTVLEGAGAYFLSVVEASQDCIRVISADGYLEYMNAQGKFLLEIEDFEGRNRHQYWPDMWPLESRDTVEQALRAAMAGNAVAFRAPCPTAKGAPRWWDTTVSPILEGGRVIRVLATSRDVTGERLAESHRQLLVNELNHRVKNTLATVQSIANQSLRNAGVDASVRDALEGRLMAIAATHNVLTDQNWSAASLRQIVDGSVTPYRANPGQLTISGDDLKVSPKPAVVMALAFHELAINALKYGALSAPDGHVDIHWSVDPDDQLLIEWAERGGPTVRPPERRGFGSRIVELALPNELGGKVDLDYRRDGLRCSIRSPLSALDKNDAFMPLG
# CC1683 = target: T7, CC1683 (Caulobacter vibrioides, UniProt Q9A7N7); settings: 500 µM ATP with [γ-32P]ATP; 5 mM MgCl2, pH 8.0, room temperature, 30 min; labelled compound
# T7 construct: gene CC_1683; recombinant from E. coli BL21, Ni-NTA purified
# T7 sequence (Q9A7N7 1-555): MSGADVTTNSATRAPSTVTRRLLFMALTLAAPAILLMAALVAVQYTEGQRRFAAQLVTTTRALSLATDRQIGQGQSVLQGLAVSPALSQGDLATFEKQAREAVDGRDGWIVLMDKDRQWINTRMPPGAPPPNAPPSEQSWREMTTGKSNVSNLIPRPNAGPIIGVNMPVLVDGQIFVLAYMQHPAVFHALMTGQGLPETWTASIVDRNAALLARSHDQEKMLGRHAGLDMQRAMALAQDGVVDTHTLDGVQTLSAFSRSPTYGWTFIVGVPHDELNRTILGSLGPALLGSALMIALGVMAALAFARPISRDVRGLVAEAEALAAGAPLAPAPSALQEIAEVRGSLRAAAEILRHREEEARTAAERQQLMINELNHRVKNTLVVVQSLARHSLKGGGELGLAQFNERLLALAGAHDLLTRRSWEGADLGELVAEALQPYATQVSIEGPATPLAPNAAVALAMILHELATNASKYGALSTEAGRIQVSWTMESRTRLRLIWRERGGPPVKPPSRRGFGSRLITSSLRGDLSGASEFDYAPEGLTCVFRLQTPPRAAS
smiles,measurement,setting,value
Nc1ncnc2c1ncn2[C@@H]1O[C@H](COP(=O)(O)OP(=O)(O)OP(=O)(O)O)[C@@H](O)[C@H]1O [ATP],"autophosphorylation, SDS-PAGE autoradiography",CC2874,Autophosphorylation of histidine kinases CC2554 (left) and CC2874 (right) and phosphotransfer to MrrA.
same,"autophosphorylation, SDS-PAGE autoradiography",CC3058,"Purified kinases CC0836, CC1683, CC3058, and CC3170 were mixed with ATP"
same,"autophosphorylation, SDS-PAGE autoradiography",CC0836,"Purified kinases CC0836, CC1683, CC3058, and CC3170 were mixed with ATP"
same,"autophosphorylation, SDS-PAGE autoradiography",CC3170,"Purified kinases CC0836, CC1683, CC3058, and CC3170 were mixed with ATP"
same,"autophosphorylation, SDS-PAGE autoradiography",[1],this part of the kinase is not required for autophosphorylation and phosphotransfer to MrrA
same,"autophosphorylation, SDS-PAGE autoradiography",CC2554,Autophosphorylation of histidine kinases CC2554 (left) and CC2874 (right) and phosphotransfer to MrrA.
same,"autophosphorylation, SDS-PAGE autoradiography",CC1683,"Purified kinases CC0836, CC1683, CC3058, and CC3170 were mixed with ATP"
